# Measured values published in ChEMBL document CHEMBL5465560, “Selectivity Literature for EUbOPEN Chemogenomic Library” (2024).
# What was measured:
# [1] = target: Serine/threonine-protein kinase PAK 3 (Homo sapiens) (UniProt O75914); details: at 10 µM
# [2] = target: Tau-tubulin kinase 2 (Homo sapiens) (UniProt Q6IQ55); assay: Selectivity interaction (ProQinase) EUB0000171b TTBK2
# [3] = target: Serine/threonine-protein kinase MRCK alpha (Homo sapiens) (UniProt Q5VT25); assay: Selectivity interaction (KinomeScan (DiscoverX)) EUB0001079a CDC42BPA; details: at 1 µM
# [4] = target: Transient receptor potential cation channel subfamily M member 6 (Homo sapiens) (UniProt Q9BX84); assay: Selectivity interaction (KinomeScan (DiscoverX)) EUB0001079a TRPM6; details: at 1 µM
# [5] = target: Phosphatidylinositol 3-kinase catalytic subunit type 3 (Homo sapiens, UniProt Q8NEB9); assay: Selectivity interaction (Kinase panel (KiNativ target engagement assay in Jurkat cells)) EUB0001635a PIK3C3; format: cell-based; details: Selectivity number of off-targets 0.0, Selectivity number of targets 233.0, Source Knowledge https://www.sciencedirect.com/science/article/pii/S2451945619300674?via%3Dihub, at 1 µM
# [6] = target: Calcium/calmodulin-dependent protein kinase type II subunit beta (Homo sapiens) (UniProt Q13554); details: at 10 µM
# [7] = target: Bone morphogenetic protein receptor type-1B (Homo sapiens, UniProt O00238); assay: Selectivity interaction (LanthaScreen Eu Kinase Binding Assay) EUB0001632a BMPR1B; details: at 10 µM
# [8] = target: Cyclin-dependent kinase 7 (Homo sapiens, UniProt P50613); assay: Selectivity interaction (ActivX KiNativ screen (kinase selectivity in THP-1 cell lysates)) EUB0000639a CDK7; format: subcellular; details: lysate
# Chain of Cyclin-dependent kinase 7 (P50613 whole entry): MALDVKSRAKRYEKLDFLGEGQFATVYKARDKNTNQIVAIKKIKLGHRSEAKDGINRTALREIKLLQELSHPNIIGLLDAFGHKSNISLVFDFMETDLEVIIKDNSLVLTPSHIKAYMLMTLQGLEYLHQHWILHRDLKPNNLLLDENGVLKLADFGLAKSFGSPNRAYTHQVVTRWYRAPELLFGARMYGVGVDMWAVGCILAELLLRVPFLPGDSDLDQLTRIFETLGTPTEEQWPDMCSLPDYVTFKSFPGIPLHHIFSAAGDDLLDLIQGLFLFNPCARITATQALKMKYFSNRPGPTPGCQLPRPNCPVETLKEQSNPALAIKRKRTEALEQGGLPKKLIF
# [9] = target: Serine/threonine-protein kinase Chk2 (Homo sapiens) (UniProt O96017); assay: Selectivity interaction (ActivX KiNativ screen (kinase selectivity in THP-1 cell lysates)) EUB0000639a CHEK2; format: subcellular; details: lysate, at 0.01 µM
# [10] = target: T1, Phosphatidylinositol 5-phosphate 4-kinase type-2 gamma (Homo sapiens) (UniProt Q8TBX8); assay: Selectivity interaction (ActivX KiNativ screen (kinase selectivity in THP-1 cell lysates)) EUB0000639a PIP4K2C; format: subcellular; details: lysate
# T1 sequence (whole entry): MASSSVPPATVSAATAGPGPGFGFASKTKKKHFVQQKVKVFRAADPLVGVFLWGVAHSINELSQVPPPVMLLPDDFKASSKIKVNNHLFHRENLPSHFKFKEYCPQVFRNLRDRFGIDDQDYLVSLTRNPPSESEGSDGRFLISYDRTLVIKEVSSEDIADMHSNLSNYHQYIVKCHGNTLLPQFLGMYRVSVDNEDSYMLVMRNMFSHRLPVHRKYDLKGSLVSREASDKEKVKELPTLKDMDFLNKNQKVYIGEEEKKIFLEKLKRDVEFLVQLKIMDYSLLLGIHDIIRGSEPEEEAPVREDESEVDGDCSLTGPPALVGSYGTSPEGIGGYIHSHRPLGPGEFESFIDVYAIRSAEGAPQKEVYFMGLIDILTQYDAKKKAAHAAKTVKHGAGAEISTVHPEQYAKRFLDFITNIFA
# [11] = target: ALK tyrosine kinase receptor (Homo sapiens, UniProt Q9UM73); assay: Selectivity interaction (KinomeScan (DiscoverX)) EUB0000607a ALK; details: at 10 µM
# Chain of ALK tyrosine kinase receptor (Q9UM73 19-1620 limits assumed): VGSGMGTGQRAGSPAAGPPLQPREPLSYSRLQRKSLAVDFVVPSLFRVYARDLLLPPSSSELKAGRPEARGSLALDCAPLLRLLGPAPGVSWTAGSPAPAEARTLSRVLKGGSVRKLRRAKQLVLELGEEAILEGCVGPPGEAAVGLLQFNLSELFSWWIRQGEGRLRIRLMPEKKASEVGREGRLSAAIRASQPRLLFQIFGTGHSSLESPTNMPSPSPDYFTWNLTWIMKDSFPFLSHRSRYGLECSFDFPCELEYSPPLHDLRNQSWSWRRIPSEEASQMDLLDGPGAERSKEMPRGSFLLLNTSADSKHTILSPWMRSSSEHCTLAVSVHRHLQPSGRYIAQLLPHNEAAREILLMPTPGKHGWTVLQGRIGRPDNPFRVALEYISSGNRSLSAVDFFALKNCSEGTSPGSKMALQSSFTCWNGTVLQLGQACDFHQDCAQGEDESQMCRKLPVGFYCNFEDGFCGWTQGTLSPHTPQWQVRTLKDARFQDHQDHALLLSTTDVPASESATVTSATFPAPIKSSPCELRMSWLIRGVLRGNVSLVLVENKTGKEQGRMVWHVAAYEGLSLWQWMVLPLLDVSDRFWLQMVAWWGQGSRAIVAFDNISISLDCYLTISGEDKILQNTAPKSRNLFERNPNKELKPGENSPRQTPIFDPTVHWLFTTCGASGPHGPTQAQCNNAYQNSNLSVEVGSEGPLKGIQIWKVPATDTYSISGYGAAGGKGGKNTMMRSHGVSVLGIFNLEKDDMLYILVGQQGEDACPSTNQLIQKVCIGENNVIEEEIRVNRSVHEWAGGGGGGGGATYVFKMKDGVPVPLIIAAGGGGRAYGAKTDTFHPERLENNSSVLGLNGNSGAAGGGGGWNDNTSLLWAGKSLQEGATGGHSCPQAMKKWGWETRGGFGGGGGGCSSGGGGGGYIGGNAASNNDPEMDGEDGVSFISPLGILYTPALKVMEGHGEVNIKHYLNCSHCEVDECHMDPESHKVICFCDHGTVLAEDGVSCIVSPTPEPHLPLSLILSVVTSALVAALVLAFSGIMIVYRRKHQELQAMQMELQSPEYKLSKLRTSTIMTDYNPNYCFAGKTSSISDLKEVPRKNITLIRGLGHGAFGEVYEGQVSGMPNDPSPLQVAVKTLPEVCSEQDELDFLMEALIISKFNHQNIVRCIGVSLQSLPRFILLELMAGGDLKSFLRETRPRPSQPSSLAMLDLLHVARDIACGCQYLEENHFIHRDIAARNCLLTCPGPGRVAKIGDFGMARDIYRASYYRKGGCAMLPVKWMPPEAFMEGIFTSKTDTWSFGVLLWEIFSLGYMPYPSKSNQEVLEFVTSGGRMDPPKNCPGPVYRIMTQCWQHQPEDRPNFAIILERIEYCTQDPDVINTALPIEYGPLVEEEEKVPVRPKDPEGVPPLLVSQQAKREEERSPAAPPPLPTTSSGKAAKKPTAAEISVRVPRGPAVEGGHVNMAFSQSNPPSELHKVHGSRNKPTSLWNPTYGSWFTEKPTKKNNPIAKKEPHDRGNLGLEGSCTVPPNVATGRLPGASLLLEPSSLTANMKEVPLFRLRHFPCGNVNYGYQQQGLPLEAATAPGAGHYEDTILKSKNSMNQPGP
# [12] = target: Serine/threonine-protein kinase MARK1 (Homo sapiens) (UniProt Q9P0L2); assay: Selectivity interaction (SelectScreen profiling (Invitrogen)) EUB0000607a MARK1; details: at 2 µM
# Chain of Serine/threonine-protein kinase MARK1 (Homo sapiens) (Q9P0L2 whole entry, looked up): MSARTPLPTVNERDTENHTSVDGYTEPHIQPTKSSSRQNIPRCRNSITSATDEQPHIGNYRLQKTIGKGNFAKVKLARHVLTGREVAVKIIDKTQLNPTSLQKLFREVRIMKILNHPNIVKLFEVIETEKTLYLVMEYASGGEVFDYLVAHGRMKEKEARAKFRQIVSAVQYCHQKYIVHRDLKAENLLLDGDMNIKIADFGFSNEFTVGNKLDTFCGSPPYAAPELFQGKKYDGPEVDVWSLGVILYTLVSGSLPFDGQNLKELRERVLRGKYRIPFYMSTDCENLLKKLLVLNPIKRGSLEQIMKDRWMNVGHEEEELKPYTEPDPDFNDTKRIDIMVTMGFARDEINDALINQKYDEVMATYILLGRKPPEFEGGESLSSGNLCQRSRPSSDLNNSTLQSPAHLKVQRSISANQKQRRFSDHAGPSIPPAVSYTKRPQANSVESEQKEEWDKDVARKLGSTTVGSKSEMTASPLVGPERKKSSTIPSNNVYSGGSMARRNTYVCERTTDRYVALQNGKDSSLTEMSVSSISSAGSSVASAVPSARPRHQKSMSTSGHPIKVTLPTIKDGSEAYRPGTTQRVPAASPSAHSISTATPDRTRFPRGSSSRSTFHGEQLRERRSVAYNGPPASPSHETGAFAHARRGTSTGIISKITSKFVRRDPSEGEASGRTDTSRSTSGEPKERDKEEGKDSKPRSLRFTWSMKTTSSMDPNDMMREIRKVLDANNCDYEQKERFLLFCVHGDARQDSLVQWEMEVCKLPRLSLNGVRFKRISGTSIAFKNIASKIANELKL
# [13] = target: Glycogen synthase kinase-3 beta (Homo sapiens, UniProt P49841); assay: Selectivity interaction (KinomeScan (DiscoverX)) EUB0000595a GSK3B; details: at 10 µM
# Chain of Glycogen synthase kinase-3 beta (P49841 whole entry, looked up): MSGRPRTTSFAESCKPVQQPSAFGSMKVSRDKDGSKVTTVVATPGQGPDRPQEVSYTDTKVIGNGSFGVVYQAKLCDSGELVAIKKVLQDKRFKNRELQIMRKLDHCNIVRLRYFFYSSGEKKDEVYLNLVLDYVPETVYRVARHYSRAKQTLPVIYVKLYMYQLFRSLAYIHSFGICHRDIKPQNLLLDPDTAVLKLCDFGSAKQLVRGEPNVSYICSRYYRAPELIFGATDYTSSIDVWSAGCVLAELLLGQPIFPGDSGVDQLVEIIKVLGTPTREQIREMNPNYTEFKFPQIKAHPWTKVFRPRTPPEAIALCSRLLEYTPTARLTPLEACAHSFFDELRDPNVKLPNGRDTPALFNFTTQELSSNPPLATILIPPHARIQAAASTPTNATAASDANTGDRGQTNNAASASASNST
# [14] = target: cAMP-dependent protein kinase catalytic subunit alpha (Homo sapiens, UniProt P17612); assay: Selectivity interaction (KinomeScan (DiscoverX)) EUB0000595a PRKACA; details: at 10 µM
# [15] = target: Serine/threonine-protein kinase 35 (Homo sapiens) (UniProt Q8TDR2); assay: Selectivity interaction (KinomeScan (DiscoverX)) EUB0000045b STK35
# Chain of Serine/threonine-protein kinase 35 (Homo sapiens) (Q8TDR2 whole entry): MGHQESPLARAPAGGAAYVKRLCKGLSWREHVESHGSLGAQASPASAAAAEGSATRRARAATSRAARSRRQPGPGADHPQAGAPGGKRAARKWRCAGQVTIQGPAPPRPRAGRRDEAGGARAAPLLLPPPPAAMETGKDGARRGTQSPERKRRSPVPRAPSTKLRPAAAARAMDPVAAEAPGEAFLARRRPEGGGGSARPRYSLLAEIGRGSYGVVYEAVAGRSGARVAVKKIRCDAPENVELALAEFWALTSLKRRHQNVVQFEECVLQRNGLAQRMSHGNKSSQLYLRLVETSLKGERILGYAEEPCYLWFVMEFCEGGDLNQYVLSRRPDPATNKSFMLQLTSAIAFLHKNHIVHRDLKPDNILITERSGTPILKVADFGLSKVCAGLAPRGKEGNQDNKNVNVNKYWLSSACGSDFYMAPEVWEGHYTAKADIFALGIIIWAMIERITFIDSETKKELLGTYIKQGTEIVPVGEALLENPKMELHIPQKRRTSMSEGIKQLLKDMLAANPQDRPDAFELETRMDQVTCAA
# [16] = target: Protein kinase C theta type (Homo sapiens, UniProt Q04759); assay: Selectivity interaction (KinomeScan (DiscoverX)) EUB0000618a PRKCQ; details: at 10 µM
# [17] = target: T2, Serine/threonine-protein kinase NLK (Homo sapiens) (UniProt Q9UBE8); assay: Selectivity interaction (KinomeScan (DiscoverX)) EUB0000618a NLK; details: at 10 µM
# T2 sequence (whole entry): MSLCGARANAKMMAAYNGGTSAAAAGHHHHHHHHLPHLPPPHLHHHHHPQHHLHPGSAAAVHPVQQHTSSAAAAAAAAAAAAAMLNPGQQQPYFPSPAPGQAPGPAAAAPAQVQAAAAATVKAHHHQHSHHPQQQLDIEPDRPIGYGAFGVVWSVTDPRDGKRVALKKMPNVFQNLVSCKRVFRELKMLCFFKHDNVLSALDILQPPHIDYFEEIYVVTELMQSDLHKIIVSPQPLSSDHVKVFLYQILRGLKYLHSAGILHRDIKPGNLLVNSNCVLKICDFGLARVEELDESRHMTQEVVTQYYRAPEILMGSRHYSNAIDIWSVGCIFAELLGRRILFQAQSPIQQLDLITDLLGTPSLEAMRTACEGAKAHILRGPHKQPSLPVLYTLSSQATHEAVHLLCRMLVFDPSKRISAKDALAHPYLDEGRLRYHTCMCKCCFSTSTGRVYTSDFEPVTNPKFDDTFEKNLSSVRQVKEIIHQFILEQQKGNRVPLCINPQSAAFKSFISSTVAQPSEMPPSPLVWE
# [18] = target: Dual specificity tyrosine-phosphorylation-regulated kinase 1A (Homo sapiens, UniProt Q13627); assay: Selectivity interaction (Ambit KINOMEscan and KiNATiv profiling in Jurkat cells) EUB0000090b DYRK1A; format: cell-based; details: at 1 µM
# [19] = target: Tyrosine-protein kinase Fgr (Homo sapiens) (UniProt P09769); assay: Selectivity interaction (ActivX KiNativ screen (ex vivo kinase selectivity in human PBMCs)) EUB0001619a FGR; format: cell-based; details: PBMC, at 1 µM
# Chain of Tau-tubulin kinase 2 (Homo sapiens) (Q6IQ55 whole entry): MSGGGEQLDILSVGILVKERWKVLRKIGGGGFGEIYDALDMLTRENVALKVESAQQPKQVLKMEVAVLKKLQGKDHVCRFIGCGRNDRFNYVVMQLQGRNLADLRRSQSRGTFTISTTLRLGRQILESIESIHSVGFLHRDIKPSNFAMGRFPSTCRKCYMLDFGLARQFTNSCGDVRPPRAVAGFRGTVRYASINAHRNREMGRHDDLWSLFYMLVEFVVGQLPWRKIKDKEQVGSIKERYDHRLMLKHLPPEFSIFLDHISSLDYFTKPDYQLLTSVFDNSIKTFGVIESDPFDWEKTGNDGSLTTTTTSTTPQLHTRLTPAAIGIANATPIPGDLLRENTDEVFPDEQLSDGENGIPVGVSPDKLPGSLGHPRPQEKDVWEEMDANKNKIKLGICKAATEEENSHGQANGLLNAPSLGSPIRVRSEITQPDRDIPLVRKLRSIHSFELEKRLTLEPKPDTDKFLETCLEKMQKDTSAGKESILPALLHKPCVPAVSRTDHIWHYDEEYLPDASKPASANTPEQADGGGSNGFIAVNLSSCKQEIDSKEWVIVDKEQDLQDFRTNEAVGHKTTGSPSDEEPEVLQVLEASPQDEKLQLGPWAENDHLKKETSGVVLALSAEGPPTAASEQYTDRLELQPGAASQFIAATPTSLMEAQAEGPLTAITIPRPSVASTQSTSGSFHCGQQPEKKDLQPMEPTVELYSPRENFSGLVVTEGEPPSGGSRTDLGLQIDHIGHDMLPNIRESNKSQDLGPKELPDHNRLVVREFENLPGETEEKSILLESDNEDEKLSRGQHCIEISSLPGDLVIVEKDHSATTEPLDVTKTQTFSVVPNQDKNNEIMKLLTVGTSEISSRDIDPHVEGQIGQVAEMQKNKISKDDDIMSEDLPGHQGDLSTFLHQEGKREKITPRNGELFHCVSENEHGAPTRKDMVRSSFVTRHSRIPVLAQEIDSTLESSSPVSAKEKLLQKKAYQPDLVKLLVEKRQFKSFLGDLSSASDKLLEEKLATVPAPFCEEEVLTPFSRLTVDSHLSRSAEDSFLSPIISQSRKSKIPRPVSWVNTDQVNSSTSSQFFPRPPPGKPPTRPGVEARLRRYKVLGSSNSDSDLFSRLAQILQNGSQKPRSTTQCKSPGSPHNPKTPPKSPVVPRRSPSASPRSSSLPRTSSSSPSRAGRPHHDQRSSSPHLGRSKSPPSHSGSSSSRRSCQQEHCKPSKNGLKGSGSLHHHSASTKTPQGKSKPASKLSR
compound,measurement,setting,value
CCN(CC)CCCCNc1ncc2cc(-c3cc(OC)cc(OC)c3)c(NC(=O)NC(C)(C)C)nc2n1,% of control,[1],100%
C=CC(=O)Nc1cccc(C(=O)Nc2ccc(Nc3cc(-c4[nH]c(SC)nc4C)ccn3)cc2)c1,% of control,[2]; at 1 µM,94%
same,% of control,[2]; at 5 µM,93%
Nc1cnc(N2CCc3cc(S(=O)(=O)Nc4c(F)cc(Cl)cc4F)cc(N4CCCC4=O)c32)nc1 [TP-020n],% of control,[3],100%
same,% of control,[4],93%
C=CC(=O)Nc1ccc(C(=O)Nc2[nH]nc3c2CN(C(=O)N[C@H](CN(C)C)c2ccccc2)C3(C)C)cc1,% of engagement,[5],-5.1%
Cc1cc([C@@H](C)Nc2ccccc2C(=O)O)c2nc(N3CCOCC3)cc(=O)n2c1 [AZD-6482],% of control,[6],83%
Cn1cc(-n2cnc3c(NCc4nc5cc(Cl)c(Cl)cc5[nH]4)nc(N4CCOCC4)nc32)cn1,% of inhibition,[7],-57.7%
CC[C@@H]1[C@H](F)C(=O)N[C@@H]1COc1nccc2cc(C(N)=O)c(OC)cc12 [ZIMLOVISERTIB],% of inhibition,[8]; at 0.01 µM,-17%
same,% of inhibition,[8]; at 0.04 µM,-0.9%
same,% of inhibition,[8]; at 0.2 µM,-1.1%
same,% of inhibition,[8]; at 1 µM,20.9%
same,% of inhibition,[8]; at 5 µM,60%
same,% of inhibition,[9],-4.8%
same,% of inhibition,[10]; at 0.01 µM,6.3%
same,% of inhibition,[10]; at 0.04 µM,19.8%
same,% of inhibition,[10]; at 0.2 µM,55.9%
same,% of inhibition,[10]; at 1 µM,83.6%
same,% of inhibition,[10]; at 5 µM,93.9%
CNC(=O)Nc1ccc(-c2nc(N3CC4CCC(C3)O4)c3cnn(C4CCC5(CC4)OCCO5)c3n2)cc1,% of control,[11],42%
same,% of inhibition,[12],13%
COCC(=O)NC/C=C/c1ccc2ncnc(Nc3ccc(Oc4ccc(C)nc4)c(C)c3)c2c1 [CP-724714],% of control,[13],68%
same,% of control,[14],100%
C=CC(=O)Nc1cc(-n2c(=O)ccc3cnc4ccc(-c5ccc(NS(C)(=O)=O)cc5)cc4c32)ccc1C,% of control,[15]; at 1 µM,100%
same,% of control,[15]; at 10 µM,100%
O[C@H]1CC[C@H](Nc2ncc3nc(Nc4c(F)cc(F)cc4F)n([C@H]4CCOC4)c3n2)CC1,% of control,[16],100%
same,% of control,[17],5.2%
CN(C)C/C=C/C(=O)Nc1ccc(C(=O)N2CCCC(Nc3ncc(Cl)c(-c4c[nH]c5ccccc45)n3)C2)cc1 (centres undefined),% of control,[18],30%
N#Cc1cccc(-c2c[nH]c3ncnc(N4CCOCC4)c23)c1,% of inhibition,[19],-34%
